{"source": "patent US11459319B2", "about": "“Cytochrome P450 inhibitors and uses thereof” (ANGION BIOMEDICA CORP., priority 2014, dated 2022)", "molecules": {"B1": {"name": "CYP26 (Mus musculus) (protein)", "chain": "MGLPALLASALCTFVLPLLLFLAALKLWDLYCVSSRDRSCALPLPPGTMGFPFFGETLQMVLQRRKFLQMKRRKYGFIYKTHLFGRPTVRVMGADNVRRILLGEHRLVSVHWPASVRTILGAGCLSNLHDSSHKQRKKVIMQAFSREALQCYVLVIAEEVSSCLEQWLSCGERGLLVYPEVKRLMFRIAMRILLGCEPGPAGGGEDEQQLVEAFEEMTRNLFSLPIDVPFSGLYRGVKARNLIHARIEENIRAKIRRLQATEPDGGCKDALQLLIEHSWERGERLDMQALKQSSTELLFGGHETTASAATSLITYLGLYPHVLQKVREEIKSKGLLCKSNQDNKLDMETLEQLKYIGCVIKETLRLNPPVPGGFRVALKTFELNGYQIPKGWNVIYSICDTHDVADIFTNKEEFNPDRFIVPHPEDASRFSFIPFGGGLRSCVGKEFAKILLKIFTVELARHCDWQLLNGPPTMKTSPTVYPVDNLPARFTYFQGDI"}}, "data": [{"substrate": "CC1=C(/C=C/C(C)=C/C=C/C(C)=C/C(=O)O)C(C)(C)CCC1", "assay": "cells, lysate or membranes named", "conditions": "other: induced mouse microsomes, Michaelis-Menten kinetics; pH 7.4", "units": {"Km": "µM"}, "values": [{"molecule": "B1", "Km": 0.004}]}, {"target": "T1, CYP26 (Mus musculus, UniProt O55127)", "T1 construct": "substrate depletion assay for ATRA metabolism in mouse microsomes; tissue Xenotech; host or cells: liver microsomes of mice treated with ATRA for four days", "T1 sequence (O55127 1-497)": "B1 chain", "assay": "CYP26 inhibition: substrate depletion assay for ATRA metabolism in induced mouse liver microsomes", "assay_type": "biochemical", "conditions": "not given", "units": {"IC50": "nM"}, "values": [{"molecule": "CCC(CC)C(c1ccc2nc(OCC(C)(C)C(=O)O)sc2c1)n1cncn1", "note": "(stereo not shown) [Example-1, 3-((6-(2-Ethyl-1-(1H-1,2,4-triazol-1-yl)butyl)benzo[d]thiazol-2-yl)oxy)-2,2-dimethylpropanoic Acid]", "IC50": "< 1000"}, {"molecule": "CCC(CC)C(c1ccc2nc(OCC3(C(=O)O)CCCC3)sc2c1)n1cncn1", "note": "(stereo not shown) [Example-3, 1-(((6-(2-Ethyl-1-(1H-1,2,4-triazol-1-yl)butyl)benzo[d]thiazol-2-yl)oxy)methyl)cyclopentanecarboxylic Acid]", "IC50": "< 1000"}, {"molecule": "CCC(CC)C(c1ccc2nc(-c3ccc(C(=O)O)cc3)sc2c1)n1cnnc1", "note": "(stereo not shown) [Example-8, 4-(6-(2-ethyl-1-(4H-1,2,4-triazol-4-yl)butyl)benzo[d]thiazol-2-yl)benzoic Acid]", "IC50": "< 1000"}, {"molecule": "CCC(CC)C(c1ccc2nc(OCC3(C(=O)O)CCCCC3)sc2c1)n1cnnc1", "note": "(stereo not shown) [Example-6, 1-(((6-(2-Ethyl-1-(4H-1,2,4-triazol-4-yl)butyl)benzo[d]thiazol-2-yl)oxy)methyl)cyclohexanecarboxylic Acid]", "IC50": "< 1000"}, {"molecule": "CCC(CC)C(c1ccc2nc(OCC3(C(=O)O)CCCCC3)sc2c1)n1cncn1", "note": "(stereo not shown) [Example-5, 1-(((6-(2-ethyl-1-(1H-1,2,4-triazol-1-yl)butyl)benzo[d]thiazol-2-yl)oxy)methyl)cyclohexanecarboxylic Acid]", "IC50": "< 1000"}, {"molecule": "CCC(CC)C(c1ccc2nc(OCC(C)(C)C(=O)O)sc2c1)n1cnnc1", "note": "(stereo not shown) [Example-2, 3-((6-(2-Ethyl-1-(4H-1,2,4-triazol-4-yl)butyl)benzo[d]thiazol-2-yl)oxy)-2,2-dimethylpropanoic Acid]", "IC50": "< 1000"}, {"molecule": "CCC(CC)C(c1ccc2nc(OCC3(C(=O)O)CCCC3)sc2c1)n1cnnc1", "note": "(stereo not shown) [Example-4, 1-(((6-(2-Ethyl-1-(4H-1,2,4-triazol-4-yl)butyl)benzo[d]thiazol-2-yl)oxy)methyl)cyclopentanecarboxylic Acid]", "IC50": "< 1000"}, {"molecule": "CCC(CC)C(c1ccc2nc(-c3ccc(C(=O)O)cc3)sc2c1)n1cncn1", "note": "(stereo not shown) [Example-7, 4-(6-(2-ethyl-1-(1H-1,2,4-triazol-1-yl)butyl)benzo[d]thiazol-2-yl)benzoic Acid]", "IC50": "< 1000"}]}, {"target": "T2, human recombinant enzyme (CYP26) (Homo sapiens, UniProt O43174)", "T2 sequence (O43174 1-497)": "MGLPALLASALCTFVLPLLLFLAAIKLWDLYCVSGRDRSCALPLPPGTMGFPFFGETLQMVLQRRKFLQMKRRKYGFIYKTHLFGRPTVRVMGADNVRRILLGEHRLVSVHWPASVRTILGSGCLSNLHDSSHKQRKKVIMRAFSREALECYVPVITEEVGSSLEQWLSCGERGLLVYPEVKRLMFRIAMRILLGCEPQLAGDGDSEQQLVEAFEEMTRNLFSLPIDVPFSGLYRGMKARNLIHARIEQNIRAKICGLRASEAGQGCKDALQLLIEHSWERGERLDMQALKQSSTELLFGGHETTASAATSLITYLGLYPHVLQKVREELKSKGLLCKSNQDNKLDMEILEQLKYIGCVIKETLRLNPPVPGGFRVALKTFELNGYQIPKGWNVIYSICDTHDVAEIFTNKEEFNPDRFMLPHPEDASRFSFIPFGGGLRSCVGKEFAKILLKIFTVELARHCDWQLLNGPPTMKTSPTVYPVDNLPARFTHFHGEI", "assay": "not given", "conditions": "read-out: Km reported for the human recombinant enzyme; cited from earlier work", "units": {"Km": "µM"}, "values": [{"molecule": "CC1=C(/C=C/C(C)=C/C=C/C(C)=C/C(=O)O)C(C)(C)CCC1", "note": "[ATRA, all-trans retinoic acid]", "Km": "~0.01"}]}]}
